Assay results reported in US20230151065A1, “MULTI-DISULFIDE-BOND LONG-CHAIN PEPTIDE WITH NEURO[…], PHARMACEUTICAL COMPOSITION AND APPLICATION” (priority 2018, published 2023).
Where no end group is shown, it is not given here.

System: primary cultured SD fetal rat cortical neurons after OGD damage
Assay: OGD damage of cortical neurons, Hoechst 33258 staining of apoptotic bodies
Format: cell-based
Conditions: OGD 2 h, 24 h reoxygenation; ABPPk2 8, 40, 200 ng/ml, dose-dependent; BDNF 10 ng/ml
Description: The suspension was filtered with a 400-mesh screen, centrifuged at 1000 rpm for 5 min, and blown to form the single cell suspension. DMEM high glucose complete medium (containing 10% fetal bovine serum) was inoculated in a culture dish or culture plate pre-coated with polylysine (PLL) to culture in 5% CO2 incubator with saturated humidity at 37° C. After the cells were cultured for 4 h to adhere to the wall, the cells were cultured with neuron culture medium (neurobasal+2% B27) for 3 d to observe the growth of neurons. The culture medium containing cytarabine (the final concentration of cytarabine was 2.5 μg/ml) was substituted with half quantity to culture for 3d to inhibit the growth of glial cells and miscellaneous cells to obtain purely cultured primary cortical nerve cells. The purity of the cortical neurons was identified by immunocytochemical staining as more than 90%.
After the cortical neurons were cultured to the 7th day, the original culture medium was sucked out, and the cells were rinsed twice with sugar-free DMEM basal medium, for 5 min each time. Each OGD damage group was added with DMEM sugar-free culture medium, placed in a Billups-Rothenberg anaerobic culture chamber, filled with 95% N2/5% CO2 to balance for 15 min, and sealed for 2 h to build an OGD model. […]

Cys-Leu-Glu-Ser-Gly-Thr-Ser-Cys-Ile-Pro-Gly-Ala-Gln-His-Asn-Cys-Cys-Ser-Gly-Val-Cys-Val-Pro-Ile-Val-Thr-Ile-Phe-Tyr-Gly-Val-Cys-Tyr (CLESGTSCIPGAQHNCCSGVCVPIVTIFYGVCY; disulfide (positions not given here); not fully specified (bridges); also: three disulfide bonds, pairing not given here) [ABPPk2, 33 amino acid polypeptide isolated from the extract of Achyranthes bidentata Blume, three pairs of disulfide bonds]
apoptotic bodies of cortical neuron nuclei: the apoptotic bodies of the cortical neuron nuclei were reduced
